Assay results reported in publication PMC12144510, “SIRT3 Functions as an Eraser of Histone H3K9 Lactylation to Modulate Transcription for Inhibiting the Progression of Esophageal Cancer” (Molecular & Cellular Proteomics : MCP, 2025).
“Also recorded” adds a separate entry of the source.

Columns and labels:
SIRT3 = system: SIRT3; set-up: method as in PMID 26120888; conditions: cited from earlier work
KYSE30 cells [1] = experiment: Cell migration (wound healing assay); assay type: cell-based, human; conditions: n = 8, supplemental Fig. S2H
Protocol: The wound healing assay involved seeding cells in 6-well plates. After the cells (KYSE30 cells with SIRT3 KO and overexpression) were fused, they were scraped off with the tip of the pipette, and the floating cells were washed away with PBS. Immediately afterward, the wounds were photographed. After culture in serum-free medium for 24 h, the wounds were photographed again.

KYSE30 cells [2] = experiment: Cell proliferation / viability (CCK-8); assay type: cell-based, human; conditions: ESCC cell (KYSE30), CCK-8, n = 8; supplemental Fig. S2G
ESCC cell = experiment: Colony formation assay; assay type: cell-based, human
Protocol: The cells (KYSE30 cells with SIRT3 KO and overexpression) to be observed were counted, and 1000 cells/well were inoculated into the 12-well plate culture plate, and the medium was changed every 3 days. About a week after cell culture, the cells were washed twice with PBS and fixed with 1 ml 4% paraformaldehyde for 10 min. The cells were stained with crystal violet solution for 5 to 10 min, and the excess crystal violet solution was washed away with PBS. The formation of cell clones was photographed. The results were analyzed by ImageJ software (v.ImageJ2).
The cells were counted and 1000 cells were inoculated in 6-well plate plates, and the medium was changed every 3 days. After about 1 week of cell culture, the cells were washed twice with PBS and fixed with 1 ml 4% paraformaldehyde for 30 min. Dye crystal violet for 5 to 10 min and then the cells were washed with PBS. The formation of cell clones was photographed and analyzed using ImageJ software.

H3K9la = H3K9la level in cells with SIRT3 inhibitor (Western blot); assay type: cell-based, human
H3K9la in HEK 293T cells = experiment: H3K9la level after sodium lactate stimulation; assay type: cell-based, human; conditions: 20 mM sodium lactate, 24 h, Figure S4B
Protocol: Histone was isolated from HEK 293T cells by acid extraction. In short, HEK 293T cells were treated with 20 mM sodium lactate for 24 h and harvested by centrifugation. The harvested HEK 293T cells were resuspended with lysis buffers (10 mM Tris–HCl pH 8.0, 1 mM KCl, 1.5 mM MgCl2, 1 mM DTT, 2 mM PMSF, and Roche Complete EDTA free protease inhibitor) and incubated at 4 °C for 1 h. The intact nuclei were centrifuged at 2000g at 4 °C for 10 min to form pellets. To extract histones, 0.4 M H2SO4 was added to the suspension nucleus and then rotated overnight at 4 °C. After removal of nuclear debris by centrifugation at 10,000g at 4 °C for 10 min, histone was precipitated by adding 100% trichloroacetic acid (trichloroacetic acid final concentration 33%). The precipitated histones were incubated at 4 °C for 10 min and washed with acetone twice. The dried protein particles were dissolved with ddH2O. Subsequently, 4 ∼ 6 μg histone was incubated with 10 μM SIRT3 in 100 μl PBS supplemented by 5 mM NAD^+ at 37 °C for 5 h. The lactylation levels at histone were detected by Western blot.

Structure (SMILES) | SIRT3 inhibition selectivity (SIRT3) | cell migration ability (KYSE30 cells [1]) | cell proliferation (KYSE30 cells [2]) | colony formation (ESCC cell) | delactylation of SIRT3 with inhibitor (H3K9la; Figure S2F) | level of H3K9la in cells (H3K9la; compared with dimethyl sulfoxide, supplemental Fig. S2F) | H3K9la level (H3K9la in HEK 293T cells)
c1cncc(-c2cn[nH]n2)c1 [3-TYP] | selective SIRT3 inhibitor | significantly increased | significantly increased; also recorded: Increasing efficiencies of proliferation | Increasing efficiencies of proliferation and colony formation | decreasing delactylation | increased H3K9la levels; also recorded: significantly increased | 
CC(O)C(=O)[O-].[Na+] (stereo not shown) [sodium lactate] |  |  |  |  |  |  | increased
